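1) Cells in 96-well plates. 2) Compound, 48 h, 5 concentrations. 3) Linear interpolation between surrounding doses. 4) Unreached endpoint = highest concentration. The concentration for 50% growth inhibition is given as GI50.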 Active and inactive are the calls of the source. Cut-off read from the data, not from the text of the source: active = GI50 up to about 1.1 µM and inactive = higher.
Assays:
Test in all cases: inhibition of tumour cell growth, NCI panel, 48 h
NCI-H226 = test system: NCI-H226
CAKI-1 = test system: CAKI-1
SK-MEL-28 = test system: SK-MEL-28
SR = test system: SR
HOP-62 = test system: HOP-62
EKVX = test system: EKVX
SNB-19 = test system: SNB-19
SK-MEL-2 = test system: SK-MEL-2
M14 = test system: M14
IGROV-1 = test system: IGROV-1
KM12 = test system: KM12
CCRF-CEM = test system: CCRF-CEM
U-251 = test system: U-251
A549 = test system: A549
SK-OV-3 = test system: SK-OV-3
SF-539 = test system: SF-539
HOP-92 = test system: HOP-92

Measured: GI50

O=C(CN1C(=O)c2ccccc2C1=O)OC1C=CCCC1 (stereo not given)
inactive: NCI-H226 > 100 µM | CAKI-1 > 100 µM | SK-MEL-28 > 100 µM | SR > 100 µM | HOP-62 > 100 µM | EKVX > 100 µM | SNB-19 > 100 µM | SK-MEL-2 > 100 µM | M14 > 100 µM | IGROV-1 > 100 µM | KM12 > 100 µM | CCRF-CEM > 100 µM | U-251 > 100 µM | A549 > 100 µM | SK-OV-3 > 100 µM | SF-539 > 100 µM

COC(=O)C(=O)C(C(=O)C(=O)Nc1ccccc1[N+](=O)[O-])c1nc2ccc([N+](=O)[O-])cc2nc1O (stereo not given)
inactive: NCI-H226 > 100 µM | HOP-92 > 100 µM | CAKI-1 > 100 µM | SK-MEL-28 > 100 µM | SR > 100 µM | EKVX > 100 µM | SNB-19 > 100 µM | SK-MEL-2 > 100 µM | M14 > 100 µM | IGROV-1 > 100 µM | KM12 > 100 µM | CCRF-CEM > 100 µM | U-251 > 100 µM | A549 > 100 µM | SK-OV-3 > 100 µM

C[N+](C)(C)C1CC([N+](C)(C)C)C2c3ccccc3C21 (stereo not given)
inactive: NCI-H226 > 100 µM | HOP-92 > 100 µM | CAKI-1 > 100 µM | SK-MEL-28 > 100 µM | HOP-62 > 100 µM | EKVX > 100 µM | SNB-19 > 100 µM | M14 > 100 µM | IGROV-1 > 100 µM | KM12 > 100 µM | CCRF-CEM > 100 µM | U-251 > 100 µM | A549 > 100 µM | SK-OV-3 > 100 µM | SF-539 > 100 µM

O=C(CC1(O)C(=O)Nc2c(Cl)ccc(Cl)c21)c1ccc(F)cc1 (stereo not given)
inactive: NCI-H226 24.8 µM | HOP-92 30.4 µM | CAKI-1 44.7 µM | SK-MEL-28 > 100 µM | HOP-62 46.7 µM | EKVX 44.4 µM | SNB-19 46.6 µM | SK-MEL-2 48.5 µM | M14 38.8 µM | KM12 43 µM | CCRF-CEM 25.9 µM | U-251 67.3 µM | A549 58.1 µM | SK-OV-3 > 100 µM

OC12CCC3(OC4CCCCO4)c4ccccc4C3C1c1ccccc12 (stereo not given)
inactive: NCI-H226 > 100 µM | SK-MEL-28 76 µM | SR 37.2 µM | HOP-62 > 100 µM | EKVX > 100 µM | SNB-19 61.9 µM | SK-MEL-2 > 100 µM | M14 67.6 µM | KM12 54.6 µM | CCRF-CEM 58.9 µM | U-251 53.8 µM | A549 85.1 µM | SK-OV-3 > 100 µM

COc1ccc(NC(=O)CC/C(CC(=O)c2ccccc2Cl)=N\Nc2nnc(C)n2N)cc1
inactive: NCI-H226 > 100 µM | HOP-92 > 100 µM | CAKI-1 > 100 µM | SK-MEL-28 > 100 µM | SR > 100 µM | EKVX > 100 µM | SNB-19 > 100 µM | SK-MEL-2 > 100 µM | IGROV-1 > 100 µM | KM12 > 100 µM | CCRF-CEM > 100 µM | U-251 > 100 µM | A549 > 100 µM | SK-OV-3 > 100 µM | SF-539 > 100 µM

CN(/N=C\c1ccnc2ccccc12)c1ccccc1
inactive: HOP-92 25.4 µM | CAKI-1 31.5 µM | SK-MEL-28 29.8 µM | HOP-62 28.1 µM | EKVX 9.12 µM | SNB-19 29.2 µM | SK-MEL-2 19.5 µM | M14 18.9 µM | IGROV-1 45.5 µM | KM12 19 µM | CCRF-CEM 10 µM | U-251 25.8 µM | A549 21.6 µM | SK-OV-3 31.2 µM | SF-539 25.7 µM

CCCCCCCCCCCCCCCC(=O)NCC(COP(=O)([O-])OCC[N+](C)(C)C)OCC (stereo not given)
inactive: NCI-H226 3.12 µM | HOP-92 3.52 µM | CAKI-1 19.7 µM | SK-MEL-28 21 µM | SR 4.58 µM | HOP-62 7.35 µM | EKVX 19.2 µM | SNB-19 3.71 µM | M14 11.5 µM | IGROV-1 4.54 µM | KM12 1.27 µM | U-251 4.16 µM | A549 21 µM | SK-OV-3 18 µM | SF-539 16.2 µM

O=c1c2ccccc2nc(-c2ccccc2Cl)n1NC1OC(CO)C(O)C(O)C1O (stereo not given)
inactive: NCI-H226 > 100 µM | HOP-92 > 100 µM | CAKI-1 > 100 µM | SK-MEL-28 > 100 µM | HOP-62 > 100 µM | EKVX > 100 µM | SNB-19 > 100 µM | SK-MEL-2 > 100 µM | M14 > 100 µM | IGROV-1 > 100 µM | KM12 > 100 µM | CCRF-CEM > 100 µM | U-251 > 100 µM | A549 > 100 µM | SK-OV-3 > 100 µM | SF-539 > 100 µM

COc1ccc(C(=O)C(CC2C(=O)NC(=O)NC2=O)c2ccc(OC)cc2)cc1 (stereo not given)
inactive: NCI-H226 > 100 µM | CAKI-1 > 100 µM | SK-MEL-28 > 100 µM | SR > 100 µM | HOP-62 > 100 µM | EKVX > 100 µM | SNB-19 > 100 µM | SK-MEL-2 > 100 µM | M14 > 100 µM | IGROV-1 > 100 µM | KM12 > 100 µM | CCRF-CEM > 100 µM | U-251 > 100 µM | A549 > 100 µM | SK-OV-3 > 100 µM | SF-539 > 100 µM

c1ccc(SC(Sc2ccccc2)=C2CCC2)cc1
inactive: HOP-92 55.3 µM | CAKI-1 > 100 µM | SK-MEL-28 > 100 µM | SR > 100 µM | HOP-62 > 100 µM | EKVX > 100 µM | SNB-19 > 100 µM | SK-MEL-2 > 100 µM | M14 > 100 µM | KM12 > 100 µM | CCRF-CEM > 100 µM | U-251 > 100 µM | A549 > 100 µM | SK-OV-3 > 100 µM | SF-539 > 100 µM

C/C(=N/O)c1ccc2c(c1)/C(=N/O)c1cc(/C(C)=N/O)ccc1-2
inactive: NCI-H226 11.2 µM | HOP-92 26.1 µM | CAKI-1 35.8 µM | SK-MEL-28 17.3 µM | SR 3.45 µM | HOP-62 13.4 µM | EKVX 7.13 µM | SNB-19 13.8 µM | SK-MEL-2 23.9 µM | M14 16.4 µM | IGROV-1 21.1 µM | KM12 16.3 µM | U-251 15.3 µM | A549 10.6 µM | SK-OV-3 21.4 µM | SF-539 15.5 µM

O=C(O)CSc1nnc(-c2ccccc2O)[nH]1
inactive: NCI-H226 > 100 µM | HOP-92 > 100 µM | CAKI-1 > 100 µM | SK-MEL-28 > 100 µM | SR > 100 µM | EKVX > 100 µM | SNB-19 > 100 µM | SK-MEL-2 > 100 µM | M14 > 100 µM | IGROV-1 > 100 µM | CCRF-CEM > 100 µM | U-251 > 100 µM | A549 > 100 µM | SF-539 > 100 µM

O=[N+]([O-])c1cc(/C=N/NS(=O)(=O)c2ccc(F)cc2)c(O)c([N+](=O)[O-])c1
inactive: HOP-92 38.4 µM | CAKI-1 76.2 µM | SK-MEL-28 82.8 µM | SR 18.4 µM | HOP-62 43.2 µM | EKVX > 100 µM | SNB-19 33.7 µM | SK-MEL-2 45.2 µM | M14 22.9 µM | IGROV-1 69.5 µM | KM12 21 µM | CCRF-CEM 37.6 µM | U-251 23.8 µM | A549 48 µM | SK-OV-3 30.1 µM | SF-539 22 µM

C=CCC1C(=O)CC2(C)CC(=O)C(CC=C)C12C (stereo not given)
inactive: NCI-H226 > 100 µM | HOP-92 > 100 µM | CAKI-1 > 100 µM | SK-MEL-28 > 100 µM | SR > 100 µM | HOP-62 > 100 µM | EKVX > 100 µM | SNB-19 > 100 µM | M14 > 100 µM | IGROV-1 > 100 µM | KM12 > 100 µM | CCRF-CEM > 100 µM | U-251 > 100 µM | A549 > 100 µM | SK-OV-3 > 100 µM | SF-539 > 100 µM

CCC12C=CCN(CCc3c([nH]c4ccccc34)/C=C\1)C2 (stereo not given)
inactive: NCI-H226 > 100 µM | CAKI-1 > 100 µM | SR > 100 µM | HOP-62 > 100 µM | EKVX > 100 µM | SNB-19 > 100 µM | SK-MEL-2 > 100 µM | M14 > 100 µM | IGROV-1 > 100 µM | KM12 > 100 µM | CCRF-CEM > 100 µM | U-251 > 100 µM | A549 > 100 µM | SF-539 > 100 µM

CC1=NN(C(=O)Nc2ccccc2)C(=O)C2CCC(=O)N12 (stereo not given)
inactive: HOP-92 > 100 µM | CAKI-1 > 100 µM | SK-MEL-28 > 100 µM | SR > 100 µM | HOP-62 > 100 µM | EKVX > 100 µM | SNB-19 > 100 µM | SK-MEL-2 > 100 µM | M14 > 100 µM | IGROV-1 > 100 µM | KM12 > 100 µM | CCRF-CEM > 100 µM | U-251 > 100 µM | A549 > 100 µM | SK-OV-3 > 100 µM | SF-539 > 100 µM

COc1ccc(NC(=O)CC(=O)N/N=C(\C)c2cc3ccccc3oc2=O)cc1
inactive: NCI-H226 > 100 µM | SK-MEL-28 > 100 µM | HOP-62 > 100 µM | EKVX > 100 µM | SNB-19 > 100 µM | M14 > 100 µM | IGROV-1 > 100 µM | KM12 > 100 µM | CCRF-CEM > 100 µM | U-251 > 100 µM | A549 > 100 µM | SK-OV-3 > 100 µM | SF-539 > 100 µM

Reference: ChEMBL document CHEMBL1201862, “PubChem BioAssay data set” (2004)
